Data: PMC4979471 (Cell Death Discovery, 2015)
Read-outs that look alike come from different tables or passages of the source.

What was measured:
Experiment in all cases: Kinase selectivity, P33-radiolabeled assay
Format in all cases: biochemical
Conditions in all cases: 10 μM ATP
TLK2 = biological target: T1, TLK2 (Homo sapiens, UniProt Q86UE8)
T1 construct: purchased Reaction Biology Corp
Method in brief: (§1)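 Reactions contained 10 μM ATP and 10 μM test compound, each run in duplicate. Kinase activity is expressed as a percentage of DMSO-treated controls.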

DYRK3 = biological target: T2, DYRK3 (Homo sapiens, UniProt O43781)
T2 construct: purchased Reaction Biology Corp
T2 sequence (O43781 1-588): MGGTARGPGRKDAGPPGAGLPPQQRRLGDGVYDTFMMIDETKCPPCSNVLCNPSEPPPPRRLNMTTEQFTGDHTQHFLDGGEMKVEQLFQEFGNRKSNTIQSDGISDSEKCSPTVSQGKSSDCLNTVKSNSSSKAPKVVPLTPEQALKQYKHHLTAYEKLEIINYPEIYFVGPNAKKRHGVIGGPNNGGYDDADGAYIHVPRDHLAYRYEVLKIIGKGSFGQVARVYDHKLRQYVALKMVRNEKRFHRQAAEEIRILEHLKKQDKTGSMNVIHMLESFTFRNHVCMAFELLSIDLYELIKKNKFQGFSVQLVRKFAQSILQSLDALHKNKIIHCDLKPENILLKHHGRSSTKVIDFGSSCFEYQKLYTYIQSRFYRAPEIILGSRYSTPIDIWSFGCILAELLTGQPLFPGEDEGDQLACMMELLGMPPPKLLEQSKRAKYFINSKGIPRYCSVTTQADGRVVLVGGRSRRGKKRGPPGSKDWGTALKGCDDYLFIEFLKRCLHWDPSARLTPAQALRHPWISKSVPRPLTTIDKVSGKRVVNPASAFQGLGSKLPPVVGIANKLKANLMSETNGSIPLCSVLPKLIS
Method in brief: as §1

CDK4/cyclin D1 = biological target: T3, CDK4/cyclin D1 (Homo sapiens, UniProt P11802)
T3 construct: purchased Reaction Biology Corp
T3 sequence (P11802 whole entry): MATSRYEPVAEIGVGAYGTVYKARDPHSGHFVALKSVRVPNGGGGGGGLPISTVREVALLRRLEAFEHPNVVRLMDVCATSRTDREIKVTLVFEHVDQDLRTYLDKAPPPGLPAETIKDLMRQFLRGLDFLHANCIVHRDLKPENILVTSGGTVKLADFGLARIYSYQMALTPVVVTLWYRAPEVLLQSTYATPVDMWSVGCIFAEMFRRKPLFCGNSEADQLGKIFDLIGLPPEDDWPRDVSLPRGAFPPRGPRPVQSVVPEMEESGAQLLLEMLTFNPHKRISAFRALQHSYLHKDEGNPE
T3 sequence (P24385 whole entry partner): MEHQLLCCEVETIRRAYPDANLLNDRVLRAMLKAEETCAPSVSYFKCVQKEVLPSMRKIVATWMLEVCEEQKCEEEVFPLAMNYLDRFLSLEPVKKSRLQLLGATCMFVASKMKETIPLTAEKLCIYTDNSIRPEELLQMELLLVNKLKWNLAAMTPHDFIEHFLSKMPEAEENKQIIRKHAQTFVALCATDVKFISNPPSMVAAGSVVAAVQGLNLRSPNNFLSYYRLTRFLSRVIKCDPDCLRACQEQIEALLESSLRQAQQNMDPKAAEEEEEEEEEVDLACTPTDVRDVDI
Method in brief: as §1

MST1/STK4 = biological target: T4, MST1/STK4 (Homo sapiens, UniProt Q13043)
T4 construct: purchased Reaction Biology Corp
T4 sequence (Q13043 1-487): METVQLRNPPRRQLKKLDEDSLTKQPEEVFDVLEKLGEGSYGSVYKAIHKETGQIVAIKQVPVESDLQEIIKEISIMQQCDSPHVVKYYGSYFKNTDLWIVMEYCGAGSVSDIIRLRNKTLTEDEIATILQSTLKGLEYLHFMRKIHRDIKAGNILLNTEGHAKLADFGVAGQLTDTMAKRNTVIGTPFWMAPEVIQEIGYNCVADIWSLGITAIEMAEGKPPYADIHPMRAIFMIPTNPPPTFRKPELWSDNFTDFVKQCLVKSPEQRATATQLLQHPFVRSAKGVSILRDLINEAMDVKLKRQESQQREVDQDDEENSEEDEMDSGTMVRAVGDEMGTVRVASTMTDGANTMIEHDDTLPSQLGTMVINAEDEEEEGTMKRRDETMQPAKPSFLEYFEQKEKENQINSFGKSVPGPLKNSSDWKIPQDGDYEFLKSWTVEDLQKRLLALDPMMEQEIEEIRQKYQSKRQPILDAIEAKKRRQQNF
Method in brief: as §1

RIPK2 = biological target: T5, RIPK2 (Homo sapiens, UniProt O43353)
T5 construct: purchased Reaction Biology Corp
T5 sequence (O43353 whole entry): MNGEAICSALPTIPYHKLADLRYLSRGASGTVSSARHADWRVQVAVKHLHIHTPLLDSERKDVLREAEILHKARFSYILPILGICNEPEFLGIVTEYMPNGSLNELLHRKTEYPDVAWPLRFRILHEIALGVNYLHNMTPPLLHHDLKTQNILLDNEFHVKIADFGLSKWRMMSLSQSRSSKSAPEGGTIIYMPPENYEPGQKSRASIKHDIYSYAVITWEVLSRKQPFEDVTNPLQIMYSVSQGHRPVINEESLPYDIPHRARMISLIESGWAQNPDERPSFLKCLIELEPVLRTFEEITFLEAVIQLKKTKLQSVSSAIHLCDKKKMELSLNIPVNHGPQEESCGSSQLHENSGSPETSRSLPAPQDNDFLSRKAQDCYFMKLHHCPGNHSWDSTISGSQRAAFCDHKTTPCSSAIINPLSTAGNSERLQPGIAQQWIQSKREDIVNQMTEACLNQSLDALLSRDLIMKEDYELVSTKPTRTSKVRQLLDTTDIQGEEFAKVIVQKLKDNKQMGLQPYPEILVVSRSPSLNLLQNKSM
Method in brief: as §1

ALK6/BMPR1B = biological target: T6, ALK6/BMPR1B (Homo sapiens, UniProt O00238)
T6 construct: purchased Reaction Biology Corp
T6 sequence (O00238 14-502): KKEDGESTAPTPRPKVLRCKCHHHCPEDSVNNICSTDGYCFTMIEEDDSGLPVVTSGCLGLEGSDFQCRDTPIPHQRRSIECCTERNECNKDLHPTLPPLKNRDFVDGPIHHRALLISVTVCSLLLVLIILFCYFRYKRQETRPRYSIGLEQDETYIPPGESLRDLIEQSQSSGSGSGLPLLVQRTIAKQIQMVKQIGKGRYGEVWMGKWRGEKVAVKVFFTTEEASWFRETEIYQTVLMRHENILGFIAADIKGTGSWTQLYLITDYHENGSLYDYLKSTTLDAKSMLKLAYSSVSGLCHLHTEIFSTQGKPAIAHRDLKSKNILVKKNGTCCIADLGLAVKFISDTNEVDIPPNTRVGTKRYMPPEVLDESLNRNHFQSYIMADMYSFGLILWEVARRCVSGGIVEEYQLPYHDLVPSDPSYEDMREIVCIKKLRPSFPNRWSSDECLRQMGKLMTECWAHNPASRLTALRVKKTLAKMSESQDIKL
Method in brief: as §1

PLK4/SAK = biological target: T7, PLK4/SAK (Homo sapiens, UniProt O00444)
T7 construct: purchased Reaction Biology Corp
T7 sequence (O00444 1-970): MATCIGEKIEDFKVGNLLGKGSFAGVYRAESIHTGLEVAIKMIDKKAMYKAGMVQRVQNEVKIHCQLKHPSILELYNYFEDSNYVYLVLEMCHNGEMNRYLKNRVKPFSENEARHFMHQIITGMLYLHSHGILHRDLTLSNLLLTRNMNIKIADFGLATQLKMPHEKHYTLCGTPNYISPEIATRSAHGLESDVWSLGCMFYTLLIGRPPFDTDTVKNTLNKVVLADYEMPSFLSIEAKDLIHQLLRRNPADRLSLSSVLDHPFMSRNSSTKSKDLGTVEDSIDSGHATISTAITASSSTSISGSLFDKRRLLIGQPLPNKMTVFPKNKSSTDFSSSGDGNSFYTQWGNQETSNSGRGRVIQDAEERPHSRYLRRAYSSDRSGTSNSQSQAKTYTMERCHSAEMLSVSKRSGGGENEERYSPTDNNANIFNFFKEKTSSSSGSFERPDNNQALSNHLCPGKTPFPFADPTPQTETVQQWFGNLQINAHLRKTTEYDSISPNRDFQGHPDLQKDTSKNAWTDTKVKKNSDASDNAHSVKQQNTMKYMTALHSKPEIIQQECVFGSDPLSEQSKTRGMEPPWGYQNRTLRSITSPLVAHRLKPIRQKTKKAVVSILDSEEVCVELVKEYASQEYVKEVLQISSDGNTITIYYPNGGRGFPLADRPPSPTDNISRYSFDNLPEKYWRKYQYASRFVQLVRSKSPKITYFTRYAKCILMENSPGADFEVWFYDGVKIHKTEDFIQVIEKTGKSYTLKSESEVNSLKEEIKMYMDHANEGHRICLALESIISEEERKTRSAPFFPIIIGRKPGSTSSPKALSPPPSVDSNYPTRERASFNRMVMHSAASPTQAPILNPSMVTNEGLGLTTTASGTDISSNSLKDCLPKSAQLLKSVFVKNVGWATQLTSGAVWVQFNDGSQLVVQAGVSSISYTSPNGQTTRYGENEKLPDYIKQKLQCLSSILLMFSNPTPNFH
Method in brief: as §1

IR = biological target: T8, IR (Homo sapiens, UniProt P06213)
T8 construct: purchased Reaction Biology Corp
T8 sequence (P06213 28-1382): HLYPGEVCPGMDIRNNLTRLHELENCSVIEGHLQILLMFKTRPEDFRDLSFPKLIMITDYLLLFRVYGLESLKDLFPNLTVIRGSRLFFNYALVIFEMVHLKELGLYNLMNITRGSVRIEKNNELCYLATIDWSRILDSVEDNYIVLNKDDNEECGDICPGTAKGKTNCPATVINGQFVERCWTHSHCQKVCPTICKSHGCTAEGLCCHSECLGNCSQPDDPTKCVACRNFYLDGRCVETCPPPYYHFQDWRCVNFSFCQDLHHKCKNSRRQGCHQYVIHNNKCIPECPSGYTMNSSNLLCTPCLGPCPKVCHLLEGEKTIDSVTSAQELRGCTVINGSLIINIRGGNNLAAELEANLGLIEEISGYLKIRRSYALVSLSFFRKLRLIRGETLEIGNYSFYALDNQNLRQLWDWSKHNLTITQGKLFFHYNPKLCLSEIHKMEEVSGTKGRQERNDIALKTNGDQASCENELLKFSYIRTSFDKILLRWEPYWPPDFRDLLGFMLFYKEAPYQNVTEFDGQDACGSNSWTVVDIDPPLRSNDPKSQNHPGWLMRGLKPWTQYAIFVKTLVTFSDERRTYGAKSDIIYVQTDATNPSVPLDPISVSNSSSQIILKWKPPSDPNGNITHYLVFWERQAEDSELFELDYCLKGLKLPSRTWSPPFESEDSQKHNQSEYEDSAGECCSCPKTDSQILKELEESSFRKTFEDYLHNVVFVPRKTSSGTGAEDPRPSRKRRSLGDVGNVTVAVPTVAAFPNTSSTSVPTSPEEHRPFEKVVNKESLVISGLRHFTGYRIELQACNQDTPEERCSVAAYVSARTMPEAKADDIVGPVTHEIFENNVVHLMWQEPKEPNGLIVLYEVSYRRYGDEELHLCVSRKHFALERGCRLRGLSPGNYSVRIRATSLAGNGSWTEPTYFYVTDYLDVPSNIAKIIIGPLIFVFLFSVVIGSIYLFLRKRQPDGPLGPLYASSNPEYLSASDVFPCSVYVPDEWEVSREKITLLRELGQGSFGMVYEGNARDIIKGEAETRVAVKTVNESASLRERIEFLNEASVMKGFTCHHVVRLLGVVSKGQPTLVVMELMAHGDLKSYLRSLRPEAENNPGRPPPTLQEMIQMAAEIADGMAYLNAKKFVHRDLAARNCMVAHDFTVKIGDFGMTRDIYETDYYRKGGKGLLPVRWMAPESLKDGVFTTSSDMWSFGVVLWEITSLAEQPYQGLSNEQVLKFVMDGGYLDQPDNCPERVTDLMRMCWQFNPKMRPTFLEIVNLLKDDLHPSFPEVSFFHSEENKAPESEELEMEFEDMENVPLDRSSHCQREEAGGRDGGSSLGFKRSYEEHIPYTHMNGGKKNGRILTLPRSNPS
Method in brief: as §1

RON/MST1R = biological target: T9, RON/MST1R (Homo sapiens, UniProt Q04912)
T9 construct: purchased Reaction Biology Corp
Method in brief: as §1

[1] = read-out: % Enzyme Activity (relative to DMSO controls) AVG
[2] = read-out: % Enzyme Activity (relative to DMSO controls) Data 1
[3] = read-out: % Enzyme Activity (relative to DMSO controls) Data 2

T1 sequence (Q86UE8 whole entry): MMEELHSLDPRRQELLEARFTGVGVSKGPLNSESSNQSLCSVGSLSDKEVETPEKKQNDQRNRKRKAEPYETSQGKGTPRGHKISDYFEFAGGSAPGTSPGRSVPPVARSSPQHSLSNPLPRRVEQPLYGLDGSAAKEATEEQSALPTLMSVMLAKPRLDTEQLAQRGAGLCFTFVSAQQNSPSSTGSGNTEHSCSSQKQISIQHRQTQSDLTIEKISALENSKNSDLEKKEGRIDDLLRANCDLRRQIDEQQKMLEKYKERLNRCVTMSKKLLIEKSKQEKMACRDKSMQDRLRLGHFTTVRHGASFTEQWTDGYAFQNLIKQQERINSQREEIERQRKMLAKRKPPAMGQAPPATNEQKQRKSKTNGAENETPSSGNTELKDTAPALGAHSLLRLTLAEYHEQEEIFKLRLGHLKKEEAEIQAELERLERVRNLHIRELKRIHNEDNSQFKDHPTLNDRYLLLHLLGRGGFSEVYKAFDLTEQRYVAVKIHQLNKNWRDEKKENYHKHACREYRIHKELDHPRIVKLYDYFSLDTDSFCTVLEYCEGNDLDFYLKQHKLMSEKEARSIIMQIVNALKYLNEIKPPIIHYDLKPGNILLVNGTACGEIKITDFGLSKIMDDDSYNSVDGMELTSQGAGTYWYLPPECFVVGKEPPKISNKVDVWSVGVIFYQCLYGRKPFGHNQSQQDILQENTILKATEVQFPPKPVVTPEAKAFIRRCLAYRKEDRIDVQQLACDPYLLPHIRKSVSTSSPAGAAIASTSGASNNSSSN

Compound CC(C)(C)C(=O)N1N=CC[C@H]1c1ccccc1 [GSK′963] has a remaining activity at 10 µM (TLK2; [1]) of 93.2%, a remaining activity at 10 µM (TLK2; [2]) of 92.9% and a remaining activity at 10 µM (TLK2; [3]) of 93.5%. The remaining activity at 10 µM (DYRK3; [1]) was 115%, the remaining activity at 10 µM (DYRK3; [2]) was 113% and the remaining activity at 10 µM (DYRK3; [3]) was 116%. It also gave a remaining activity at 10 µM (CDK4/cyclin D1; [1]) of 96.7%, a remaining activity at 10 µM (CDK4/cyclin D1; [2]) of 94.5% and a remaining activity at 10 µM (CDK4/cyclin D1; [3]) of 98.9%. It also gave a remaining activity at 10 µM (MST1/STK4; [1]) of 100%, a remaining activity at 10 µM (MST1/STK4; [2]) of 101% and a remaining activity at 10 µM (MST1/STK4; [3]) of 100%. The remaining activity at 10 µM (RIPK2; [1]) was 110%, the remaining activity at 10 µM (RIPK2; [2]) was 108% and the remaining activity at 10 µM (RIPK2; [3]) was 112%. For the same compound, the remaining activity at 10 µM (ALK6/BMPR1B; [1]) was 90.5%, the remaining activity at 10 µM (ALK6/BMPR1B; [2]) was 91% and the remaining activity at 10 µM (ALK6/BMPR1B; [3]) was 90%. For the same compound, the remaining activity at 10 µM (PLK4/SAK; [1]) was 113%, the remaining activity at 10 µM (PLK4/SAK; [2]) was 114% and the remaining activity at 10 µM (PLK4/SAK; [3]) was 112%. It also gave a remaining activity at 10 µM (IR; [1]) of 101%, a remaining activity at 10 µM (IR; [2]) of 104% and a remaining activity at 10 µM (IR; [3]) of 97.1%. It also gave a remaining activity at 10 µM (RON/MST1R; [1]) of 104%, a remaining activity at 10 µM (RON/MST1R; [2]) of 106% and a remaining activity at 10 µM (RON/MST1R; [3]) of 102%.
